In US12479843B2, “Spiro ring-containing quinazoline compounds” (WIGEN BIOMEDICINE TECHNOLOGY (SHANGHAI) CO., LTD., priority 2019, dated 2025):
Read-outs that look alike come from different tables or passages of the source.

How the values were obtained:
pERK level in H358 cells = experiment: pERK and ERK protein content assay in H358 cells (ELISA); assay type: cell-based; details: 24 h, pERK/ERK ratio compared with DMSO group; for inhibition at 1 µM: Homo sapiens, NCI-H358, compound 1 μM, read-out: Inhibition rate (%) of pERK level
Outline: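 Percent inhibition of pERK relative to DMSO, from the ELISA pERK/ERK ratio in lysed H358 cells. Compound applied at 1 μM for 24 h after one day of growth.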

H358 cells = experiment: Antiproliferative activity against H358 cells (Cell Titer Glow, ultra-low attachment plate); assay type: cell-based; details: three days after addition of compound
Description: 2500 H358 cells were seeded in a 96-well ultra-low attachment plate (corning, 7007). After one day of growth, a serially diluted compound (a maximum concentration of 5 μM, 5-fold dilution, a total of five doses) was added. Three days after the addition of the compound, Cell Titer Glow (Promega, G9681) was added to evaluate pellet growth, and the IC50 value was calculated.

[1] = Pharmacokinetic evaluation in mice; assay type: in vivo, male ICR mice; details: for Vd: read-out: Vss; for F: po 10 mg/kg vs iv 2 mg/kg
Description: The compounds were administered by intravenous injection at a dose of 2 mg/kg and oral gavage at a dose of 10 mg/kg (0.5% CMC-Na suspension). 15 male ICR mice were selected for each group, and each mouse was subjected to blood collection at 3 discrete time points, with 3 mice per time point. The time points of sampling were as follows: before the administration, and at 5 min, 15 min, 30 min, 1 h, 3 h, 5 h, 8 h, 12 h and 24 h after the administration. 80 μL of blood was collected from the eye sockets or the hearts of the mice at each of the time points after the administration. All whole blood samples were collected in tubes containing EDTA K2 and centrifuged (1500-1600 rmp) at 4° C. for 10 min to isolate plasma, which was then stored in a refrigerator at −90 to −60° C. for sample analysis. The compound concentration in the plasma was determined by liquid chromatography-tandem mass spectrometry, and the corresponding pharmacokinetic parameters were obtained according to a plasma concentration-time curve.

[2] = tested on: Human pancreatic cancer Mia PaCa-2 cells; experiment: Antitumor activity on graft tumors of human pancreatic cancer Mia PaCa-2 in nude mice; assay type: in vivo; details: Mia PaCa-2 graft tumors in nude mice, 10 mg/kg intragastric, qd*21
Description: Human pancreatic cancer Mia PaCa-2 cells were cultured conventionally in 1640 medium containing 10% fetal bovine serum in a 37° C./5% CO2 incubator. After passage, the cells were collected when they reached the desired amount. 1×10^7 Mia PaCa-2 cells were injected into the left dorsal side of each nude mouse, and the animals were randomly grouped for administration after tumors grew to 150 mm3. The groups are as follows: 1) a solvent control group of 8 mice; and 2) compound 1 group, compound 2 group, compound 5 group, compound 31 group, compound 131 group, compound 142 group, compound 171 group, compound B group and compound C group, with 8 mice per group. Mice in the solvent control group were subjected to intragastric administration of 0.5% CMC-Na once daily; mice in compound 1 group, compound 2 group, compound 5 group, compound 31 group, compound 131 group, compound 142 group, compound 171 group, compound B group and compound C group were subjected to intragastric administration of a suspension of a compound in 0.5% CMC-Na once daily. On Tuesday and Thursday each week, tumor volumes and body weight of the mice were measured, and the nude mice were sacrificed on day 21 of administration.

[3] = Homo sapiens, NCI-H358, 72 h, 96-well ultra-low attachment plate, Cell Titer Glow
[4] = male, ICR, mouse, plasma, iv, 2 mg/kg
[5] = male, ICR, mouse, plasma, iv, 2 mg/kg, read-out: Cmax
[6] = male, ICR, mouse, plasma, iv, 2 mg/kg, read-out: Tmax
[7] = male, ICR, mouse, plasma, po, 10 mg/kg, 0.5% CMC-Na suspension
[8] = male, ICR, mouse, plasma, po, 10 mg/kg, 0.5% CMC-Na suspension, read-out: Cmax
[9] = male, ICR, mouse, plasma, po, 10 mg/kg, 0.5% CMC-Na suspension, read-out: Tmax
[10] = po, 10 mg/kg, 0.5% CMC-Na suspension

Row | Compound | inhibition at 1 µM (pERK level in H358 cells) | IC50 (H358 cells; [3]) | also measured
1 | C=CC(=O)N1CC2(CCN(c3nc(OC4CCN(CCOC)CC4)nc4c(OCC(F)(F)F)c(-c5c(C)ccc6[nH]ncc56)c(C5CC5)cc34)CC2)C1 [B, reference compound] | > 90% | < 300 nM | IC50 (H358 cells; Homo sapiens, NCI-H358, 72 h): 4.6 nM; AUC(0-t) [1, 4]: 7820 ng·h/mL; clearance [1, 4]: 4.2 mL/min/kg; half-life [1, 4]: 4.47 h; Cmax [1, 5]: 2880 ng/mL; Tmax [1, 6]: 0.083 h; Vd [1, 4]: 1.01 L/kg; AUC(0-t) [1, 7]: 10300 ng·h/mL; half-life [1, 7]: 3.74 h; Cmax [1, 8]: 1300 ng/mL; Tmax [1, 9]: 2 h; F [1]: 26.5%; Anti-tumor effect (regression) [2]: 25% regression
2 | C=C(F)C(=O)N1CC2(CCN(c3nc(OC4CCN(CCOC)CC4)nc4c(OCC(F)(F)F)c(-c5c(C)ccc6[nH]ncc56)c(C5CC5)cc34)CC2)C1 [Compound 1] |  |  | Inhibition rate (%) of pERK level (pERK level in H358 cells; compound 1 μM): +++ (+++ indicates an inhibition rate greater than 90%.); IC50 (H358 cells; 96-well ultra-low attachment plate, Cell Titer Glow): < 300 nM; Cl ([1]; iv, 2 mg/kg): 2.33 mL/min/kg; Cmax ([1]; iv, 2 mg/kg): 2557 ng/mL; Tmax ([1]; iv, 2 mg/kg): 1 h; Vss ([1]; iv, 2 mg/kg): 0.782 L/kg; t1/2 ([1]; iv, 2 mg/kg): 4.31 h; F [1]: 29.0%; Cmax [1, 10]: 1543 ng/mL; Tmax [1, 10]: 4 h; t1/2 [1, 10]: 6.94 h; Anti-tumor effect (regression) [2]: 39% regression
3 | C=C(F)C(=O)N1CC2(CCN(c3nc(OC4CCN(CCOC)CC4)nc4c(OCC)c(-c5c(C)ccc6[nH]ncc56)c(C5CC5)cc34)CC2)C1 [Compound 2] | > 90% | < 300 nM | Anti-tumor effect (regression) [2]: 23% regression
4 | C=Cc1cc2c(N3CCC4(CC3)CN(C(=O)C(=C)F)C4)nc(OC3CCN(CCOC)CC3)nc2c(OCC(F)(F)F)c1-c1c(C)ccc2[nH]ncc12 [Compound 5] | > 90% | < 300 nM | Anti-tumor effect (regression) [2]: 30% regression
5 | C=CC(=O)N1CC2(CCN(c3nc(OC4CC5(CCN(CCOC)CC5)C4)nc4c(OCC(F)(F)F)c(-c5c(C)ccc6[nH]ncc56)c(C5CC5)cc34)CC2)C1 [Compound 131] | > 90% | < 300 nM | IC50 (H358 cells; Homo sapiens, NCI-H358, 72 h): 1.5 nM; AUC(0-t) [1, 4]: 11300 ng·h/mL; clearance [1, 4]: 1.87 mL/min/kg; half-life [1, 4]: 4.12 h; Cmax [1, 5]: 2350 ng/mL; Tmax [1, 6]: 0.5 h; Vd [1, 4]: 2.1 L/kg; AUC(0-t) [1, 7]: 22300 ng·h/mL; half-life [1, 7]: 5.86 h; Cmax [1, 8]: 1820 ng/mL; Tmax [1, 9]: 2 h; F [1]: 39.4%; Anti-tumor effect (regression) [2]: 37% regression
6 | C=CC(=O)N1CC2(CCN(c3nc(N4CC(N5CC[C@@H](C)C5)C4)nc4c(OCC(F)(F)F)c(-c5c(C)c(C)cc6[nH]ncc56)c(C5CC5)cc34)CC2)C1 [Compound 325] | > 90% | < 300 nM | 
7 | C=CC(=O)N1CC2(CCN(c3nc(N4CC(N5C6CCC5CC6)C4)nc4c(OCC(F)(F)F)c(-c5c(C)c(C)cc6[nH]ncc56)c(C5CC5)cc34)CC2)C1 [Compound 326] | > 90% | < 300 nM | 
8 | C=CC(=O)N1CC2(CCN(c3nc(N4CC(N5CC[C@H](C)C5)C4)nc4c(OCC(F)(F)F)c(-c5c(C)c(F)cc6[nH]ncc56)c(C5CC5)cc34)CC2)C1 [Compound 327] | > 90% | < 300 nM | 
9 | C=CC(=O)N1CC2(CCN(c3nc(N4CC(N5CC[C@@H](C)C5)C4)nc4c(OCC(F)(F)F)c(-c5c(C)c(F)cc6[nH]ncc56)c(C5CC5)cc34)CC2)C1 [Compound 328] | > 90% | < 300 nM | 
10 | C=CC(=O)N1CC2(CCN(c3nc(N4CC(N5C6CCC5CC6)C4)nc4c(OCC(F)(F)F)c(-c5c(C)c(F)cc6[nH]ncc56)c(C5CC5)cc34)CC2)C1 [Compound 329] | > 90% | < 300 nM | 
11 | C=CC(=O)N1CC2(CCN(c3nc(N4CC(N5CC[C@H](C)C5)C4)nc4c(OCC)c(-c5c(C)ccc6[nH]ncc56)c(C5CC5)cc34)CC2)C1 [Compound 330] | > 90% | < 300 nM | 
12 | C=CC(=O)N1CC2(CCN(c3nc(N4CC(N5CC[C@@H](C)C5)C4)nc4c(OCC)c(-c5c(C)ccc6[nH]ncc56)c(C5CC5)cc34)CC2)C1 [Compound 331] | > 90% | < 300 nM | 
13 | C=CC(=O)N1CC2(CCN(c3nc(N4CC(N5C6CCC5CC6)C4)nc4c(OCC)c(-c5c(C)ccc6[nH]ncc56)c(C5CC5)cc34)CC2)C1 [Compound 332] | > 90% | < 300 nM | 
14 | C=CC(=O)N1CC2(CCN(c3nc(N4CC(N5CC[C@H](C)C5)C4)nc4c(OCC(F)F)c(-c5c(C)ccc6[nH]ncc56)c(C5CC5)cc34)CC2)C1 [Compound 333] | > 90% | < 300 nM | 
15 | C=CC(=O)N1CC2(CCN(c3nc(N4CC(N5CC[C@@H](C)C5)C4)nc4c(OCC(F)F)c(-c5c(C)ccc6[nH]ncc56)c(C5CC5)cc34)CC2)C1 [Compound 334] | > 90% | < 300 nM | 
16 | C=CC(=O)N1CC2(CCN(c3nc(N4CC(N5C6CCC5CC6)C4)nc4c(OCC(F)F)c(-c5c(C)ccc6[nH]ncc56)c(C5CC5)cc34)CC2)C1 [Compound 335] | > 90% | < 300 nM | 
17 | C=CC(=O)N1CC2(CCN(c3nc(N4CC(N5CCC5)C4)nc4c(OCC(F)(F)F)c(-c5c(C)ccc6[nH]ncc56)c(C=C)cc34)CC2)C1 [Compound 336] | > 90% | < 300 nM | 
18 | C=CC(=O)N1CC2(CCN(c3nc(N4CC(N5CCCC5)C4)nc4c(OCC(F)(F)F)c(-c5c(C)ccc6[nH]ncc56)c(C=C)cc34)CC2)C1 [Compound 337] | > 90% | < 300 nM | 
19 | C=CC(=O)N1CC2(CCN(c3nc(N4CC5(CCN(CCOC)CC5)C4)nc4c(OCC(F)(F)F)c(-c5c(C)ccc6[nH]ncc56)c(C=C)cc34)CC2)C1 [Compound 338] | > 90% | < 300 nM | 
20 | C=CC(=O)N1CC2(CCN(c3nc(N4CC(N5CC[C@H](C)C5)C4)nc4c(OCC(F)(F)F)c(-c5c(C)ccc6[nH]ncc56)c(C=C)cc34)CC2)C1 [Compound 339] | > 90% | < 300 nM | 
21 | C=CC(=O)N1CC2(CCN(c3nc(N4CC(N5C6CCC5CC6)C4)nc4c(OCC(F)(F)F)c(-c5c(C)ccc6[nH]ncc56)c(C=C)cc34)CC2)C1 [Compound 341] | > 90% | < 300 nM | 
